Test results: the NIST ThermoML archive (doi:10.1021/je500381c)

Test: xn = mol fraction of the nth substance listed
Conditions: for mass density / viscosity: 100 kPa, Liquid; for mass density: Vibrating tube method; for surface tension liquid-gas: Drop volume

CC12CC3CC(C)(C1)CC(C)(C3)C2 [1,3,5-trimethyladamantane] + OCC1CCCCC1
Conditions	mass density [kg/m3]	surface tension liquid-gas [mN/m]	viscosity [mPa·s]
293.15 K, x2 = 0	887.48	–	2.601
293.15 K, x2 = 0.1	889.7	–	2.872
293.15 K, x2 = 0.2001	892.4	–	3.328
293.15 K, x2 = 0.2997	895.41	–	3.955
293.15 K, x2 = 0.4	898.82	–	4.859
293.15 K, x2 = 0.4994	902.62	–	6.211
293.15 K, x2 = 0.5991	906.88	–	8.288
293.15 K, x2 = 0.7	911.64	–	11.51
293.15 K, x2 = 0.801	917.1	–	16.66
293.15 K, x2 = 0.8927	922.52	–	24.62
298.15 K, x2 = 0	883.99	26.17	2.338
298.15 K, x2 = 0.1	886.13	26.18	2.55
298.15 K, x2 = 0.2001	888.82	26.4	2.939
298.15 K, x2 = 0.2997	891.83	26.77	3.455
298.15 K, x2 = 0.4	895.23	27.22	4.184
298.15 K, x2 = 0.4994	899.02	27.65	5.256
298.15 K, x2 = 0.5991	903.29	28.16	6.866
298.15 K, x2 = 0.7	908.13	28.88	9.343
298.15 K, x2 = 0.801	913.53	29.74	13.22
298.15 K, x2 = 0.8927	918.95	30.63	19.19
303.15 K, x2 = 0	880.47	–	2.118
303.15 K, x2 = 0.1	882.54	–	2.297
303.15 K, x2 = 0.2001	885.21	–	2.615
303.15 K, x2 = 0.2997	888.21	–	3.041
303.15 K, x2 = 0.4	891.61	–	3.639
303.15 K, x2 = 0.4994	895.4	–	4.492
303.15 K, x2 = 0.5991	899.66	–	5.76
303.15 K, x2 = 0.7	904.52	–	7.681
303.15 K, x2 = 0.801	909.91	–	10.65
303.15 K, x2 = 0.8927	915.34	–	15.28
308.15 K, x2 = 0	876.94	–	1.93
308.15 K, x2 = 0.1	878.93	–	2.072
308.15 K, x2 = 0.2001	881.59	–	2.336
308.15 K, x2 = 0.2997	884.59	–	2.694
308.15 K, x2 = 0.4	887.97	–	3.187
308.15 K, x2 = 0.4994	891.76	–	3.876
308.15 K, x2 = 0.5991	896.02	–	4.884
308.15 K, x2 = 0.7	900.87	–	6.386
308.15 K, x2 = 0.801	906.27	–	8.659
308.15 K, x2 = 0.8927	911.73	–	12.26
313.15 K, x2 = 0	873.4	–	1.765
313.15 K, x2 = 0.1	875.32	–	1.878
313.15 K, x2 = 0.2001	877.95	–	2.1
313.15 K, x2 = 0.2997	880.94	–	2.402
313.15 K, x2 = 0.4	884.32	–	2.811
313.15 K, x2 = 0.4994	888.09	–	3.371
313.15 K, x2 = 0.5991	892.35	–	4.181
313.15 K, x2 = 0.7	897.2	–	5.366
313.15 K, x2 = 0.801	902.61	–	7.126
313.15 K, x2 = 0.8927	908.08	–	9.952
318.15 K, x2 = 0	869.86	–	1.621
318.15 K, x2 = 0.1	871.69	–	1.71
318.15 K, x2 = 0.2001	874.3	–	1.898
318.15 K, x2 = 0.2997	877.27	–	2.151
318.15 K, x2 = 0.4	880.63	–	2.494
318.15 K, x2 = 0.4994	884.4	–	2.954
318.15 K, x2 = 0.5991	888.66	–	3.609
318.15 K, x2 = 0.7	893.49	–	4.552
318.15 K, x2 = 0.801	898.9	–	5.932
318.15 K, x2 = 0.8927	904.4	–	8.189
323.15 K, x2 = 0	866.31	–	1.494
323.15 K, x2 = 0.1	868.04	–	1.564
323.15 K, x2 = 0.2001	870.63	–	1.723
323.15 K, x2 = 0.2997	873.58	–	1.936
323.15 K, x2 = 0.4	876.93	–	2.224
323.15 K, x2 = 0.4994	880.69	–	2.604
323.15 K, x2 = 0.5991	884.94	–	3.14
323.15 K, x2 = 0.7	889.76	–	3.899
323.15 K, x2 = 0.801	895.17	–	4.99
323.15 K, x2 = 0.8927	900.68	–	6.785
328.15 K, x2 = 0	862.76	–	1.384
328.15 K, x2 = 0.1	864.39	–	1.435
328.15 K, x2 = 0.2001	866.94	–	1.569
328.15 K, x2 = 0.2997	869.86	–	1.752
328.15 K, x2 = 0.4	873.2	–	1.994
328.15 K, x2 = 0.4994	876.94	–	2.311
328.15 K, x2 = 0.5991	881.18	–	2.751
328.15 K, x2 = 0.7	885.99	–	3.367
328.15 K, x2 = 0.801	891.4	–	4.238
328.15 K, x2 = 0.8927	896.92	–	5.705
333.15 K, x2 = 0	859.2	–	1.284
333.15 K, x2 = 0.1	860.72	–	1.322
333.15 K, x2 = 0.2001	863.23	–	1.436
333.15 K, x2 = 0.2997	866.13	–	1.59
333.15 K, x2 = 0.4	869.45	–	1.797
333.15 K, x2 = 0.4994	873.17	–	2.061
333.15 K, x2 = 0.5991	877.4	–	2.426
333.15 K, x2 = 0.7	882.2	–	2.93
333.15 K, x2 = 0.801	887.6	–	3.632
333.15 K, x2 = 0.8927	893.12	–	4.772
